Common to all, as to assay type: biochemical
One test addresses T1, KRAS WT (Homo sapiens, UniProt P01116).
T1 construct: made in house; host or cells: E. coli, e.g. BL21 (DE3)
Kind of test: HTRF KRAS-SOS1 interaction assay, wildtype KRAS. As to conditions: binned ≤2 μM / >2 μM, read-out: Inhibition of KRAS WT (IC50). The source says: (§1) This assay can be also used to assess a selective inhibition or reduction of signaling output of a mutant Ras protein relative to a wildtype, or relative to a different mutant Ras protein. For example, the equilibrium interaction of wildtype KRAS or K-Ras mutant (e.g., wildtype or a mutant thereof) with SOS1 (e.g., hSOS1) can be assessed as a proxy or an indication for the ability of a subject compound to bind and inhibit Ras protein. The HTRF assay detects from (i) a fluorescence resonance energy transfer (FRET) donor (e.g., antiGST-Europium) that is bound to GST-tagged K-Ras mutant to (ii) a FRET acceptor (e.g., anti-6His-XL665) bound to a His-tagged hSOS1.
(§2) The assay buffer can contain ˜5 mM HEPES pH 7.4, ˜150 mM NaCl, ˜1 mM DTT, 0.05% BSA and 0.0025% (v/v) Igepal. A Ras working solution is prepared in an assay buffer containing typically a suitable amount of the protein construct (e.g., GST-tagged K-Ras mutant) and the FRET donor (e.g., antiGST-Eu (K) from Cisbio, France). A SOS1 working solution is prepared in an assay buffer containing suitable amount of the protein construct (e.g., His-hSOS1) and the FRET acceptor (e.g., anti-6His-XL665 from Cisbio, France). A suitable amount of the protein construct will depend on the range of activity or range of IC50 values being detected or under investigation. For detecting an IC50 within a range of 500 nM, the protein constructs of the same range of molarity can be utilized.
(§3) A fixed volume of DMSO with or without test compound is transferred into a 384-well plate. Ras working solution is added to all wells of the test plate. SOS1 working solution is added to all wells except for those that are subsequently filled with inhibitor control solution. Upon incubation for about 10 minutes or longer, the fluorescence is measured with a M1000Pro plate reader (Tecan) using HTRF detection (excitation 337 nm, emission 1:620 nm, emission 2:665 nm). Compounds are tested in duplicate at different concentrations (for example, 10 μM, 2.5 μM, 0.63 μM, 0.16 μM, 0.04 μM, 0.01 μM test compound). The ratiometric data (i.e., emission 2 divided by emission 1) is used to calculate IC50 values against Ras using GraphPad Prism (GraphPad software). Signaling output measured in terms of IC50 values can be obtained and a ratio of IC50 against one mutant relative to another mutant can be calculated.

The next test has as its target T2, KRAS G12V (Homo sapiens, UniProt P01116, G12V).
T2 construct: made in house; host or cells: E. coli, e.g. BL21 (DE3)
Kind of test: HTRF KRAS-SOS1 interaction assay, KRAS G12V. As to conditions: binned ≤2 μM / >2 μM, read-out: Inhibition of KRAS G12V (IC50).
From the text: as §1, §2, §3

For the next test, the target named is T3, KRAS G12S (Homo sapiens, UniProt P01116, G12S).
T3 construct: made in house; host or cells: E. coli, e.g. BL21 (DE3)
T3 sequence (P01116 1-188 isoform P01116-2 G12S): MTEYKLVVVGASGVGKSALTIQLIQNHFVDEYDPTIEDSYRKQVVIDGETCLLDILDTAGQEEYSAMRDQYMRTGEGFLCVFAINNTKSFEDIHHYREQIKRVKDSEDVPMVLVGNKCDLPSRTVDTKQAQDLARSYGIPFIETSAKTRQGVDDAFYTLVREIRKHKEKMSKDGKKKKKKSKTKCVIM
The experiment in a line: HTRF KRAS-SOS1 interaction assay, KRAS G12S. As to conditions: binned ≤2 μM / >2 μM, read-out: Inhibition of KRAS G12S (IC50).
From the text: as §1, §2, §3
On the technique in general: TR-FRET usually uses a lanthanide donor and a delayed reading to cut background.

A further test deals with T4, KRAS G12D (Homo sapiens, UniProt P01116, G12D).
T4 construct: made in house; host or cells: E. coli, e.g. BL21 (DE3)
T4 sequence (P01116 1-188 isoform P01116-2 G12D): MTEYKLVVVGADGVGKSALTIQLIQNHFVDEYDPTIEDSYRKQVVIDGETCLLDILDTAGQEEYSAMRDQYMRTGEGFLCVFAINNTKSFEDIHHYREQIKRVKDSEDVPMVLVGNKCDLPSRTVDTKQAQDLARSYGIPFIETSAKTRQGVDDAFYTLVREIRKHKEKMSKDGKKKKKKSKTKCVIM
The experiment in a line: HTRF KRAS-SOS1 interaction assay, KRAS G12D. As to conditions: binned ≤2 μM / >2 μM, read-out: Inhibition of KRAS G12D (IC50).
From the text: as §1, §2, §3

As usually defined, the IC50 is the concentration needed to halve the response being measured.

T1 sequence (P01116 1-188 isoform P01116-2): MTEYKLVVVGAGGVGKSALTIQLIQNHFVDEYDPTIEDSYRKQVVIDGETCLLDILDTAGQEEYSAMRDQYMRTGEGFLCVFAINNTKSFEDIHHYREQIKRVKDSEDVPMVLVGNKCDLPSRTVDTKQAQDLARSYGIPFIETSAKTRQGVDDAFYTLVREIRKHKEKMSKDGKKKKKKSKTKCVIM
T2 sequence (P01116 1-188 isoform P01116-2 G12V): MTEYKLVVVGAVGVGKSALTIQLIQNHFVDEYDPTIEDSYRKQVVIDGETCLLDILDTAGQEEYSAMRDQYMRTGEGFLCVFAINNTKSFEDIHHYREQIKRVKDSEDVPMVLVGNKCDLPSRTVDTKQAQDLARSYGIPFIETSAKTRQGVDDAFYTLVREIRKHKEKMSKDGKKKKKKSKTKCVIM

Turning to `C#C[C@H]1COc2c(Cl)c(-c3ccc(F)c4sc(N)c(C#N)c34)c(F)c3nc(OC[C@@]45CCCN4C[C@H](F)C5)nc(c23)N1C(C)c1cccnc1N` (single isomer, unassigned) [Compound 664], the IC50 on KRAS WT, on KRAS G12V and at KRAS G12S was no more than 2000 nM throughout.

On to `N#Cc1c(N)sc2c(F)ccc(-c3c(Cl)c4c5c(nc(OC[C@@]67CCCN6C[C@H](F)C7)nc5c3F)N(C(CC(F)F)c3cccnc3N)CCO4)c12` (mixture of isomers) [Compound 681, 2-amino-4-(4-(1-(2-aminopyridin-3-yl)-3,3-difluoropropyl)-8-chloro-10-fluoro-2-(((2R,7aS)-2-fluorotetrahydro-1H-pyrrolizin-7a(5H)-yl)methoxy)-5,6-dihydro-4H-[1,4]oxazepino[5,6,7-de]quinazolin-9-yl)-7-fluorobenzo[b]thiophene-3-carbonitrile], for which the IC50 at KRAS WT, at KRAS G12V and at KRAS G12S was no more than 2000 nM each time.

With `CC(c1cccnc1N)N1CCOc2c(Cl)c(-c3ccc(F)c4sc(N)c(C#N)c34)c(F)c3nc(OC[C@@]45CCCN4C[C@H](F)C5)nc1c23` (single isomer, unassigned) [Compound 656], the IC50 on KRAS WT, at KRAS G12V and at KRAS G12S was no more than 2000 nM each time.

On to `C[C@H](c1ccc(F)nc1N)N1CCOc2c(C(F)(F)F)c(-c3ccc(F)c4sc(N)c(C#N)c34)c(F)c3nc(OC[C@@]45CCCN4C[C@H](F)C5)nc1c23` (single isomer, unassigned) [Compound 628], for which the IC50 at KRAS WT, on KRAS G12V and on KRAS G12S was no more than 2000 nM each time.

`C[C@H](c1cccnc1N)N1CCOc2c(C(F)(F)F)c(-c3cccc4sc(N)c(C#N)c34)c(F)c3nc(OC[C@@]45CCCN4C[C@H](F)C5)nc1c23` (single isomer, unassigned) [Compound 678]: the IC50 on KRAS WT, on KRAS G12V and at KRAS G12S was no more than 2000 nM each time.

In the case of `C[C@H](c1cccnc1N)N1CCOc2c(C(F)(F)F)c(-c3ccc(F)c4sc(N)c(C#N)c34)c(F)c3nc(OC[C@@]45CCCN4CC(C#N)C5)nc1c23` (single isomer, unassigned) [Compound 663], the half-maximal inhibitory concentration (IC50) at KRAS WT, at KRAS G12V and at KRAS G12S was no more than 2000 nM throughout.

As for `C[C@H](c1cccnc1N)N1CCOc2c(C(F)(F)F)c(-c3cc(F)c(F)c4sc(N)c(C#N)c34)c(F)c3nc(OC[C@@]45CCCN4C[C@H](F)C5)nc1c23` (single isomer, unassigned) [Compound 863], the IC50 on KRAS G12D, at KRAS WT and on KRAS G12S was greater than 2000 nM each time.

With `CCO/N=C(\C)CCC[C@H](c1cccnc1N)N1CCOc2c(C(F)(F)F)c(-c3ccc(F)c4sc(N)c(C#N)c34)c(F)c3nc(OC[C@@]45CCCN4C[C@H](F)C5)nc1c23` (single isomer, unassigned) [Compound 720], the 50% inhibitory concentration (IC50) at KRAS G12D, on KRAS WT and at KRAS G12V was no more than 2000 nM in each case.

As to `C[C@H](c1cccnc1N)N1CCOc2c(C(F)(F)F)c(-c3ccc(F)c4sc(N)c(C#N)c34)c(F)c3nc(OC[C@@]45CCCN4C[C@H](F)C5)nc1c23` (single isomer, unassigned) [Compound 768], the IC50 at KRAS G12S is no more than 2000 nM.

Regarding `CCO/N=C(\C)CCC[C@H](c1cccnc1N)N1CCOc2c(C(F)(F)F)c(-c3ccc(F)c4sc(N)c(C#N)c34)c(F)c3nc(OC[C@@]45CCCN4C[C@H](F)C5)nc1c23` (single isomer, unassigned) [Compound 859], the IC50 at KRAS G12D, at KRAS WT and on KRAS G12V was greater than 2000 nM throughout.

Consider `C=CC[C@H](c1cccnc1N)N1CCOc2c(C(F)(F)F)c(-c3ccc(F)c4sc(N)c(C#N)c34)c(F)c3nc(OC[C@@]45CCCN4C[C@H](F)C5)nc1c23` (single isomer, unassigned) [Compound 734], for which the results for the IC50 at KRAS G12D, at KRAS WT and on KRAS G12V were no more than 2000 nM, greater than 2000 nM and greater than 2000 nM, respectively.

For `N#Cc1c(N)sc2c(F)ccc(-c3c(C(F)(F)F)c4c5c(nc(OC[C@@]67CCCN6C[C@H](F)C7)nc5c3F)N([C@H](CCC3CCC3)c3cccnc3N)CCO4)c12` (single isomer, unassigned) [Compound 745], the IC50 at KRAS G12D and on KRAS WT was no more than 2000 nM in each case.

As for `N#Cc1c(N)sc2c(F)ccc(-c3c(C(F)(F)F)c4c5c(nc(OC[C@@]67CCCN6C[C@H](F)C7)nc5c3F)N([C@H](CC3CCOC3)c3cccnc3N)CCO4)c12` (single isomer, unassigned) [Compound 772], the IC50 at KRAS G12D, at KRAS WT and at KRAS G12V was no more than 2000 nM in each case.

With `N#Cc1c(N)sc2c(F)ccc(-c3c(C(F)(F)F)c4c5c(nc(OC[C@@]67CCCN6C[C@H](F)C7)nc5c3F)N([C@H](CC3CCOC3)c3cccnc3N)CCO4)c12` (single isomer, unassigned) [Compound 717], the IC50 at KRAS G12D, at KRAS WT and at KRAS G12V was greater than 2000 nM throughout.

Turning to `C[C@H](c1cccnc1N)N1CCOc2c(C(F)(F)F)c(-c3ccc(F)c4sc(N)c(C#N)c34)c(F)c3nc(OC[C@@]45CCCN4C[C@H](F)C5)nc1c23` (single isomer, unassigned) [Compound 757], the IC50 at KRAS G12D, at KRAS WT and at KRAS G12V was no more than 2000 nM each time.

In the case of `N#Cc1c(N)sc2c(F)ccc(-c3c(C(F)(F)F)c4c5c(nc(OC[C@@]67CCCN6[C@H](COc6cnc(C(F)(F)F)cn6)CC7)nc5c3F)N([C@@H](c3cccnc3N)C(F)F)CCO4)c12` (single isomer, unassigned) [Compound 882], the half-maximal inhibitory concentration (IC50) at KRAS G12D, at KRAS G12V and on KRAS G12S was no more than 2000 nM throughout.

For the molecule `Cc1cnc(N)c([C@@H](C)N2CCOc3c(C(F)(F)F)c(-c4ccc(F)c5sc(N)c(C#N)c45)c(F)c4nc(OC[C@@]56CCCN5C[C@H](F)C6)nc2c34)c1` (single isomer, unassigned) [Compound 861], the IC50 on KRAS G12D, at KRAS WT and on KRAS G12S was greater than 2000 nM in each case.

With `C[C@H](c1ccc(F)nc1N)N1CCOc2c(C(F)(F)F)c(-c3ccc(F)c4sc(N)c(C#N)c34)c(F)c3nc(OC[C@@]45CCCN4C[C@H](F)C5)nc1c23` (single isomer, unassigned) [Compound 726], the IC50 at KRAS G12D was no more than 2000 nM.

As for `N#Cc1c(N)sc2c(F)ccc(-c3c(C(F)(F)F)c4c5c(nc(OC[C@@]67CCCN6C[C@H](F)C7)nc5c3F)N([C@H](CC3CCOCC3)c3cccnc3N)CCO4)c12` (single isomer, unassigned) [Compound 824], on KRAS G12D, the IC50 is no more than 2000 nM.

As for `N#Cc1c(N)sc2c(F)ccc(-c3c(C(F)(F)F)c4c5c(nc(OC[C@@]67CCCN6[C@H](COc6cnc(C(F)(F)F)cn6)CC7)nc5c3F)N([C@@H](c3cccnc3N)C(F)F)CCO4)c12` (single isomer, unassigned) [Compound 887], the IC50 at KRAS WT was no more than 2000 nM.

As for `N#Cc1c(N)sc2c(F)ccc(-c3c(C(F)(F)F)c4c5c(nc(OC[C@@]67CCCN6C[C@H](F)C7)nc5c3F)N([C@H](CC3CCOC3)c3cccnc3N)CCO4)c12` (single isomer, unassigned) [Compound 911], the IC50 at KRAS G12D, on KRAS WT and on KRAS G12V was no more than 2000 nM throughout.

Regarding `CN(C)CC[C@H](c1cccnc1N)N1CCOc2c(C(F)(F)F)c(-c3ccc(F)c4sc(N)c(C#N)c34)c(F)c3nc(OC[C@@]45CCCN4C[C@H](F)C5)nc1c23` (single isomer, unassigned) [Compound 758], the IC50 on KRAS G12D was no more than 2000 nM.

With `C[C@H](c1cccnc1N)N1CCOc2c(Cl)c(-c3cccc4sc(N)c(C#N)c34)c(F)c3nc(OC[C@@]45CCCN4C[C@H](F)C5)nc1c23` (single isomer, unassigned) [Compound 823], the IC50 at KRAS G12D is no more than 2000 nM.

For `C[C@H](c1cccnc1N)N1CCOc2c(Cl)c(-c3cccc4sc(N)c(C#N)c34)c(F)c3nc(OC[C@@]45CCCN4CC(=C(F)F)C5)nc1c23` (single isomer, unassigned) [Compound 688], at KRAS G12D, the IC50 is no more than 2000 nM.

Source of the values: patent publication US12668600B2 (Kumquat Biosciences Inc., priority 2023, dated 2026).
